# Laboratory results: article PMC12650265 (The Journal of Experimental Medicine, 2025)
# “Also recorded” adds a separate entry of the source.
# Assays:
# [1] = test system: SKW-3 cells expressing MAIT TCR AF-7; test: SKW-3 reporter T cell activation (CD69), coculture with C1R.MR1; format: cell-based; conditions: for reactivity to 5-OP-RU (CD69): SKW-3-AF-7, in the presence of 1 nM 5-OP-RU; for reactivity to RL-7-Me (CD69): SKW-3-AF-7, in the presence of 100 nM RL-7-Me
# Experimental: (§1) Given the intracellular MR1 retention induced by the RF catabolites, we anticipated that these ligands could influence the activity of MR1-reactive T cells. First, we utilized a system whereby reporter SKW-3 T cell lines were cocultured with C1R.MR1 APCs and activation was determined by CD69 expression. […] In contrast, SKW-3-MBV28 cells were inhibited by alloxazine but activated by lumichrome (Fig. S3, D–F). Two MR1-restricted TRAV1-2^−ve SKW-3 T cell lines were also tested.
# (§2) C1R.MR1 cells (1 × 10^5) were initially stained with CTV (Thermo Fisher Scientific) for 15 min and then incubated with RF catabolites for 20 h. […] Cells were subsequently stained with PE-Cy7-conjugated anti-CD69 (1:100; BD Biosciences) and PE-labeled anti-MR1 (1:100, clone 26.5; BD Biosciences), before analysis on a LSRFortessa (BD Biosciences) flow cytometer. Activation of the SKW-3 cells was reflected by the cell surface CD69 expression.
# soluble WT MR1 = test: fluorescence-based thermal shift (thermostability) assay of MR1–ligand complexes; format: binding, human; conditions: MR1 refolded with the ligand, SYPRO Orange, 28 to 95°C, three independent experiments
# [2] = test system: T1, human MR1–β2-microglobulin (β2m) complex; test: refolding of recombinant MR1-β2m with ligand; format: binding; conditions: ligand added to refolding buffer; gel filtration and SDS-PAGE
# T1 construct: plasmids encoding for the extracellular domains of MR1, β2m, and the AF-7 TCRα and TCRβ chains; made in house
# [3] = test system: T2, MR1 on PBMC-derived B lymphocytes; test: MR1 surface expression on primary B cells; format: cell-based; conditions: primary human B cells, 16 h, highest doses, with or without 5-OP-RU
# T2 construct: we also measured MR1 on the surface of cells expressing wild-type levels of MR1; endogenous in cells; host or cells: PBMC-derived B lymphocytes from healthy human donors
# [4] = test system: T3, surface MR1*01 on THP-1.MR1 cells; test: quantification of cell surface MR1 by flow cytometry, THP-1.MR1 cells; format: cell-based, human; conditions: 3 h
# T3 construct: expressed in transfected cells; host or cells: THP-1 monocytic cells transduced with MR1
# Experimental: Next, we investigated whether these RF catabolites can impact MR1 cell surface expression in both MR1-transduced B cell lymphoblastoid (C1R.MR1) and monocytic (THP-1.MR1) cell lines (Fig. 2). Here, the cells were incubated with 1–200 µM of RF or the RF catabolites, and the cell surface levels of MR1 were quantified by flow cytometry ([Awad et al., 2020a]; [Keller et al., 2017]). […] The MR1 downregulation seen in C1R.MR1 cells was specific to MR1 as the level of HLA-A*02:01 was not affected after incubating C1R-A2 with the ligands (Fig. S1 E). […] This MR1 downregulation varied between cell types, with a higher extent observed in THP-1.MR1 than C1R.MR1, and was seen after staining with two different conformational anti-MR1 antibodies (clones 8F2F9 and 26.5; Fig. 2 G). Beyond APCs overexpressing MR1, we also measured MR1 on the surface of cells expressing wild-type levels of MR1.
# (§3) The level of MR1 expressed on the cell surface was measured after the exposure to the investigated ligands as previously described ([Awad et al., 2020a]; [Wang et al., 2022a]). […] The PE fluorescence intensity reflects the surface MR1 level. The data were acquired with LSRFortessa X-20 (BD Biosciences) and Diva software (BD Biosciences) and analyzed using FlowJo software (BD Biosciences).
# hMR1 protein = molecular target: T4, hMR1 protein (Homo sapiens, UniProt Q95460); test: fluorescence polarization–based cell-free assay, competition with JYM20 for MR1 binding; conditions: 50% inhibition of 10 nM JYM20 binding to 100 nM empty hMR1, 37°C; three independent experiments in triplicate
# T4 construct: plasmids encoding for the extracellular domains of MR1, β2m, and the AF-7 TCRα and TCRβ chains; made in house; host or cells: Escherichia coli BL21(DE3)
# T4 sequence (Q95460 23-302 limits assumed): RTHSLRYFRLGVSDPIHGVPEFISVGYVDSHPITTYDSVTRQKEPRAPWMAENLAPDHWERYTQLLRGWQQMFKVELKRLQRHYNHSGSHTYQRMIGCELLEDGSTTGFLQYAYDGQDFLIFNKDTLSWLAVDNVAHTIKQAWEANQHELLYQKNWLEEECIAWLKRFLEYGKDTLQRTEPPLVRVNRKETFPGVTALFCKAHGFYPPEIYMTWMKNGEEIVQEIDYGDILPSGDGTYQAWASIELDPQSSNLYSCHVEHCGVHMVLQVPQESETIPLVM
# T4 sequence (P61769 21-119 partner): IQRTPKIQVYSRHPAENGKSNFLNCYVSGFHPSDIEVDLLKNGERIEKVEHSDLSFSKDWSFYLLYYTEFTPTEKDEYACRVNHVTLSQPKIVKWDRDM
# [5] = test system: T5, MR1^K43A on C1R.MR1^K43A cells; test: cell surface MR1^K43A by flow cytometry; format: cell-based, human
# T5 construct: expressed in transfected cells; host or cells: C1R cells overexpressing MR1^K43A
# Description: (§4) We then tested the effect of the RF catabolites on the expression of two mutant versions of MR1 termed MR1^R9H ([Howson et al., 2020]) and MR1^K43A ([Reantragoon et al., 2013]). First, we tested the MR1^R9H mutant ([Howson et al., 2020]), which represents a rare, natural human polymorph. […] We used C1R.MR1^R9H cells, which are produced by stable transduction of wild-type C1R cells, which express low levels of wild-type MR1, with a vector expressing the MR1^R9H mutant ([Howson et al., 2020]). […] When C1R. […] Next, we sought to understand how the previously characterized K43A mutation affects ligand binding.
# The level of MR1 expressed on the cell surface was measured after the exposure to the investigated ligands as previously described ([Awad et al., 2020a]; [Wang et al., 2022a]). C1R Ag-presenting B lymphocytes overexpressing MR1*01 (C1R.MR1), MR1^K43A mutant (C1R.MR1^K43A), MR1^R9H mutant (C1R.MR1^R9H), or HLA-A*02:01 (C1R-A2), in addition to the monocytic THP-1-MR1 cells, were used in this study. 2 × 10^5 cells were incubated with RF catabolites for 3 or 16 h at 37°C and 5% CO2 in 200 μl folate-free RPMI 1640 medium from Gibco (Cat. No. 11875-093) fortified with 10% fetal bovine serum, sodium pyruvate (1 mmol/L), HEPES buffer (15 mmol/L), pH 7.2–7.5, 2% penicillin (100 U/ml), streptomycin ([…]), GlutaMAX (2 mmol/L), nonessential amino acids (0.1 mmol/L) (all from Thermo Fisher Scientific, Life Technologies), and 2-mercaptoethanol ([…], Sigma-Aldrich) (RF-10). After incubation, the cells were first stained with Zombie Aqua Fixable Viability Kit from BioLegend (Cat. No. 423102) and then incubated with biotinylated 8F2F9 αMR1 antibody for 30 min on ice. The unbound antibody was then washed off with 2% fetal bovine serum/PBS (called 2% FACS hereafter) buffer. The cells were finally incubated with PE-conjugated streptavidin (30 μg/ml; BioLegend) and then washed with 2% FACS buffer. The PE fluorescence intensity reflects the surface MR1 level. The data were acquired with LSRFortessa X-20 (BD Biosciences) and Diva software (BD Biosciences) and analyzed using FlowJo software (BD Biosciences).
# MR1 in C1R.MR1 cells = test system: T6, MR1 in C1R.MR1 cells; test: Endo H treatment and western blot of intracellular MR1; format: cell-based, human; conditions: 16 h, Ac-6-FP 10 μM, RF and catabolites 100 μM
# T6 construct: expressed in transfected cells; host or cells: C1R B lymphoblastoid cells transduced with MR1*01
# Experimental: The downregulation of MR1 on the cell surface by the RF catabolites could be due to the depletion of the intracellular ER-resident MR1 pool, or due to the retention of MR1 in the ER, as shown for the DB28 ligand ([Salio et al., 2020]). To investigate this, C1R.MR1 cells were treated for 16 h with 100 µM RF or RF catabolites, conditions that induce MR1 downregulation (Fig. 3 A). Cells were lysed, and treated with endoglycosidase (Endo) H, to distinguish molecules that remain within the ER from those that have trafficked to the cell surface ([McWilliam et al., 2016]), and then, MR1 levels were assessed by immunoblotting (Fig. 3 A).
# C1R.MR1 cells were cultured with different RF catabolites for 16 h, at 37°C. Samples were then treated with or without Endo H for 1-h incubation at 37°C. Cells were lysed, and lysate protein concentration was quantified by BCA assay. Equal amounts of samples (40 µg total protein) were separated on SDS-PAGE gels before being transferred onto nitrocellulose membranes and incubated with primary (anti-MR1; clone 8G3) ([McWilliam et al., 2020]) then corresponding secondary antibody (IRDye 800CW anti-mouse IgG, Cat. No. 925-32210; LICORbio). The protein bands were visualized by the Li-Cor system.
# [6] = test system: T7, folded MR1 in C1R.MR1 cells; test: intracellular total folded MR1 by flow cytometry (8F2.F9); format: cell-based, human; conditions: 16 h, 100 µM
# T7 construct: expressed in transfected cells; host or cells: C1R B lymphoblastoid cells transduced with MR1*01
# [7] = test system: T8, MR1^R9H on C1R.MR1^R9H cells; test: cell surface MR1^R9H by flow cytometry; format: cell-based, human
# T8 construct: expressed in transfected cells; host or cells: C1R cells stably transduced with MR1^R9H
# Description: as §4
# as §3, with “2022a]). C1R Ag-presenting B lymphocytes overexpressing MR1*01 (C1R.MR1), MR1^K43A mutant (C1R.MR1^K43A), MR1^R9H mutant (C1R.MR1^R9H), or HLA-A*02:01 (C1R-A2), in addition to the monocytic THP-1-MR1 cells, were used in this study.” for “2022a]).”
# [8] = test system: T9, surface MR1*01 on C1R.MR1 cells; test: quantification of cell surface MR1 by flow cytometry, C1R.MR1 cells; format: cell-based, human; conditions: C1R.MR1 cells, 1–200 µM, 8F2F9 antibody
# T9 construct: expressed in transfected cells; host or cells: C1R B lymphoblastoid cells transduced with MR1*01
# [9] = test system: SKW-3 cells expressing MAIT TCR MBV28; test: SKW-3 reporter T cell activation (CD69), coculture with C1R.MR1; format: cell-based; conditions: SKW-3 MBV28 cocultured with C1R.MR1, no agonist
# Experimental: as §1, §2
# MR1 on C1R.MR1 cells = test system: T10, MR1 on C1R.MR1 cells; test: competition with Ac-6-FP or 5-OP-RU for MR1 upregulation, C1R.MR1 cells; format: cell-based, human; conditions: 1–200 µM overnight
# T10 construct: expressed in transfected cells; host or cells: C1R B lymphoblastoid cells transduced with MR1*01
# MR1 on THP-1.MR1 cells = test system: T11, MR1 on THP-1.MR1 cells; test: competition with Ac-6-FP for MR1 upregulation, THP-1.MR1 cells; format: cell-based, human; conditions: 1–200 µM overnight, then 10 µM Ac-6-FP for 3 h
# T11 construct: expressed in transfected cells; host or cells: THP-1 monocytic cells transduced with MR1
# [10] = test system: MAIT and TRAV1-2^−ve cells from PBMCs; test: TCR-independent or bead stimulation of PBMCs (PMA and ionomycin, αCD3/αCD28 beads); format: cell-based, human; conditions: PBMCs preincubated 16 h, then PMA and ionomycin; MAIT or non-MAIT TRAV1-2^−ve cells
smiles,measurement,setting,value
"Cc1cc2nc3c(=O)[nH]c(=O)nc-3n(C)c2cc1C [Lumiflavin, lumiflavin]",reactivity to 5-OP-RU (CD69),[1],enhanced activation
same,reactivity to RL-7-Me (CD69),[1],activation was enhanced
same,"Tm50 (half-maximum melting temperature), Mean ± SD",soluble WT MR1; listed as MR1-Lumiflavin,52.02 ± 0.58 °C
same,folding of the MR1-β2m cocomplex in solution,[2],facilitated the correct folding of the MR1-β2m cocomplex
same,MR1 surface expression,[3],reduced MR1 surface expression
same,MR1 cell surface expression,[4],downregulated MR1 after 3 h
same,IC50,hMR1 protein,22.8 µM
same,MR1^K43A at the cell surface,[5]; 3 h,increased MR1^K43A at the cell surface
"CC(=O)Nc1nc2ncc(C=O)nc2c(=O)[nH]1 [Ac-6-FP, acetyl-6-FP, reference compound]",Endo H–resistant MR1,MR1 in C1R.MR1 cells,"increase in MR1 of a higher molecular weight, in line with Endo H resistance"
same,total level of folded MR1 (intracellular staining with 8F2.F9),[6],significantly increased total folded MR1
same,"Tm50 (half-maximum melting temperature), Mean ± SD",soluble WT MR1,64.22 ± 0.27 °C
same,MR1^R9H surface level,[7],significantly increased
"Cc1cc2nc3c(=O)[nH]c(=O)nc-3n(C[C@H](O)[C@H](O)[C@H](O)CO)c2cc1C [RF, riboflavin]",MR1 cell surface expression,[8]; 3 h,did not alter MR1 expression from the baseline
same,MR1 cell surface expression,[8]; 16 h,modestly upregulated MR1; also recorded: modest increase
same,Endo H–resistant MR1,MR1 in C1R.MR1 cells,Neither RF nor its catabolites induced any Endo H–resistant MR1
same,"activation (CD69 expression), ligand alone",[9],not activated
same,reactivity to 5-OP-RU (CD69),[1],not altered
same,reactivity to RL-7-Me (CD69),[1],activation was enhanced
same,"activation (CD69 expression), ligand alone","[1]; SKW-3 AF-7 cocultured with C1R.MR1, no agonist",not activated
same,effect on Ac-6-FP–induced cell surface upregulation of MR1,MR1 on C1R.MR1 cells; then 10 µM Ac-6-FP for 3 h,did not modulate
same,effect on 5-OP-RU–induced cell surface upregulation of MR1,MR1 on C1R.MR1 cells; then 5-OP-RU for 3 h,did not modulate
same,effect on Ac-6-FP–induced cell surface upregulation of MR1,MR1 on THP-1.MR1 cells,did not modulate
same,folding of the MR1-β2m cocomplex in solution,[2],did not sponsor refolding of MR1
same,IC50,hMR1 protein,182 µM
same,MR1^K43A at the cell surface,[5]; 16 h,MR1 upregulation continues
same,MR1^R9H surface level,[7],did not deviate from the background level
same,block of CD69 upregulation and TNF production,[10],neither RF nor RF catabolites could block
